The values below come from patent US9777005B2 (Takeda Pharmaceutical Company Limited, priority 2012, dated 2017).

The target in the assay is T1, human M1 receptor (hCHRM1) (Homo sapiens, UniProt P11229).
T1 construct: expressed in transfected cells; host or cells: CHO-K1
T1 sequence (P11229 1-460): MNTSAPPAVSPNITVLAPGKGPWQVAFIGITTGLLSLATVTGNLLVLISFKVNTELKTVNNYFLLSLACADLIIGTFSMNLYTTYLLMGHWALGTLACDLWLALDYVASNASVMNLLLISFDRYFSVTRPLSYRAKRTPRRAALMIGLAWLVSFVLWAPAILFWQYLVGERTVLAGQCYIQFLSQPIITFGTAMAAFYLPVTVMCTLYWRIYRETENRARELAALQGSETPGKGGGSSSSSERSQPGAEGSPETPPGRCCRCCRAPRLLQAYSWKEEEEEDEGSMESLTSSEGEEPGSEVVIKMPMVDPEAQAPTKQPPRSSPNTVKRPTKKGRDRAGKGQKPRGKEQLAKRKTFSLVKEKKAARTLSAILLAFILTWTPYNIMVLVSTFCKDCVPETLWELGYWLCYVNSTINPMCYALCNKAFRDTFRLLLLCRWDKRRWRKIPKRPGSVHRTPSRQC
The assay can be described thus: Measurement of M1 receptor positive allosteric modulator (M1PAM) activity, calcium fluorescence (FLIPRtetra) in CHO-K1 cells in the presence of acetylcholine at EC20. It counts as cell-based. The conditions noted are these: in the presence of acetylcholine at EC20 (final 0.6 nM), CHO-K1 cells expressing hCHRM1; for pEC50: inflection point of M1PAM activity, read-out: IP value; for activity (%) at 10 μM: test compound 10 μM. As to the method:
Measurement of M1 Receptor Positive Allosteric Modulator (M1PAM) Activity
The activity of a test compound in the presence of acetylcholine at EC20 concentration (final concentration 0.6 nM), which affords an action corresponding to 20% of the maximum activity, was measured as PAM activity. The method is as follows. CHO-K1 cells forcibly expressing a human M1 receptor (hCHRM1) were plated on a 384-well black clear bottom plate (BD Falcon) at 5,000 cells/well, and cultured in an incubator at 37° C., 5% CO2 for 1 day. The medium in the cell plate was removed, and assay buffer A (Recording medium (DOJINDO LABORATORIES), 0.1% BSA (Wako Pure Chemical Industries, Ltd.), 2.5 μg/mL Fluo-4 AM (DOJINDO LABORATORIES), 0.08% Pluronic F127 (DOJINDO LABORATORIES), 1.25 mM probenecid (DOJINDO LABORATORIES)) containing a calcium indicator was added at 30 μL/well. The cells were left standing in the incubator at 37° C., 5% CO2 for 30 min, and further left standing at room temperature for 30 min. A test compound prepared by diluting with assay buffer B (HBSS (Invitrogen), 20 mM HEPES (Invitrogen), 0.1% BSA) containing 2.4 nM acetylcholine was added at 10 μL/well, and the fluorescence was measured by FLIPRtetra (Molecular Devices) for 1 min every 1 second. With the definition that the amount of change in the fluorescence on addition of acetylcholine (final concentration 1 μM) is 100% and that on addition of DMSO instead of a test compound is 0%, the activity (%) of the test compound and the inflection point in the concentration-dependent curve of the test compound were calculated as IP values.

pEC50: −log10 of the molar value.

As for `Cc1nn(C)cc1-c1ccc(CN2Cc3ccnc(O[C@H]4CCC[C@@H]4O)c3C2=O)cc1` (relative stereo) [Example 227, 2-(4-(1,3-dimethyl-1H-pyrazol-4-yl)benzyl)-4-((trans-2-hydroxycyclopentyl)oxy)-1,2-dihydro-3H-pyrrolo[3,4-c]pyridin-3-one], the pEC50 was 8.00 and the “activity (%) at 10 μM” value worked out at 99%.

`CNC(=O)c1ccc(CN2Cc3ccnc(Oc4ccc(Br)cc4F)c3C2=O)cc1F` [Example 442, 4-((4-(4-bromo-2-fluorophenoxy)-3-oxo-1,3-dihydro-2H-pyrrolo[3,4-c]pyridin-2-yl)methyl)-2-fluoro-N-methylbenzamide]: the pEC50 is 7.42 and the “activity (%) at 10 μM” value is 100%.

With `Cc1cc(-c2ccc(CN3Cc4ccnc(Oc5ccc(C#N)cc5F)c4C3=O)cc2)on1` [Example 373, 3-fluoro-4-((2-(4-(3-methyl-1,2-oxazol-5-yl)benzyl)-3-oxo-2,3-dihydro-1H-pyrrolo[3,4-c]pyridin-4-yl)oxy)benzonitrile], the pEC50 was 7.35 and the “activity (%) at 10 μM” value came to 103%.

Turning to `Cc1nn(C)cc1-c1ccc(CN2Cc3ccnc(OCc4ncccc4F)c3C2=O)c(F)c1` [Example 329, 2-(4-(1,3-dimethyl-1H-pyrazol-4-yl)-2-fluorobenzyl)-4-((3-fluoropyridin-2-yl)methoxy)-1,2-dihydro-3H-pyrrolo[3,4-c]pyridin-3-one], the pEC50 is 8.37 and the “activity (%) at 10 μM” value is 106%.

For the compound `Cn1ccc(-c2ccc(CN3Cc4ccnc(OCC5CCCO5)c4C3=O)c(F)c2)n1` (stereo not drawn) [Example 230, 2-(2-fluoro-4-(1-methyl-1H-pyrazol-3-yl)benzyl)-4-((tetrahydrofuran-2-yl)methoxy)-1,2-dihydro-3H-pyrrolo[3,4-c]pyridin-3-one], the pEC50 was 8.00 and the “activity (%) at 10 μM” value is recorded as 113%.

Regarding `Cc1cc(-c2ccc(CN3Cc4ncnc(Oc5c(F)cc(F)cc5F)c4C3=O)cc2)ccn1` [Example 367, 6-(4-(2-methylpyridin-4-yl)benzyl)-4-(2,4,6-trifluorophenoxy)-6,7-dihydro-5H-pyrrolo[3,4-d]pyrimidin-5-one], the pEC50 was 7.55 and the “activity (%) at 10 μM” value turned out to be 101%.

In the case of `CCn1cc(-c2ccc(CN3Cc4ncnc(OC5CCC5)c4C3=O)cc2)cn1` [Example 324, 4-(cyclobutyloxy)-6-(4-(1-ethyl-1H-pyrazol-4-yl)benzyl)-6,7-dihydro-5H-pyrrolo[3,4-d]pyrimidin-5-one], the pEC50 is 7.72 and the “activity (%) at 10 μM” value turned out to be 99%.

`CCC(CO)Oc1nccc2c1C(=O)N(Cc1ccc(-c3cn(C)nc3C)cc1)C2` (single isomer, unassigned) [Example 274, 2-(4-(1,3-dimethyl-1H-pyrazol-4-yl)benzyl)-4-((l-hydroxybutan-2-yl)oxy)-1,2-dihydro-3H-pyrrolo[3,4-c]pyridin-3-one]: the pEC50 is 7.92 and the “activity (%) at 10 μM” value was found to be 102%.

Turning to `Cc1nn(C)cc1-c1ccc(CN2Cc3ccnc(O[C@@H]4CCC[C@H]4O)c3C2=O)cc1` (single isomer, unassigned) [Example 255, 2-(4-(1,3-dimethyl-1H-pyrazol-4-yl)benzyl)-4-((trans-2-hydroxycyclopentyl)oxy)-1,2-dihydro-3H-pyrrolo[3,4-c]pyridin-3-one], the pEC50 was 7.32 and the “activity (%) at 10 μM” value turned out to be 106%.

As for `Cn1ccc(-c2ccc(CN3Cc4ncnc(Oc5ccc(C(F)(F)F)cc5F)c4C3=O)cc2)n1` [Example 314, 4-(2-fluoro-4-(trifluoromethyl)phenoxy)-6-(4-(1-methyl-1H-pyrazol-3-yl)benzyl)-6,7-dihydro-5H-pyrrolo[3,4-d]pyrimidin-5-one], the pEC50 is 7.96 and the “activity (%) at 10 μM” value was 89%.

With `Cc1nn(C)cc1-c1ccc(CN2Cc3cccc(O[C@H]4CCC[C@@H]4O)c3C2=O)cc1` (relative stereo) [Example 226, 2-(4-(1,3-dimethyl-1H-pyrazol-4-yl)benzyl)-7-((trans-2-hydroxycyclopentyl)oxy)isoindolin-1-one], the pEC50 was 7.52 and the “activity (%) at 10 μM” value amounted to 98%.

Turning to `Cc1cc(-c2ccc(CN3Cc4ccnc(Oc5c(C)cc(F)cc5F)c4C3=O)cc2)cnn1` [Example 358, 4-(2,4-difluoro-6-methylphenoxy)-2-(4-(6-methylpyridazin-4-yl)benzyl)-1,2-dihydro-3H-pyrrolo[3,4-c]pyridin-3-one], the pEC50 was 7.11 and the “activity (%) at 10 μM” value is given as 91%.

In the case of `Cn1cc(-c2ccc(CN3Cc4ccnc(OC5c6ncccc6CC5(C)C)c4C3=O)cc2)cn1` (stereo not drawn) [Example 349, 4-((6,6-dimethyl-6,7-dihydro-5H-cyclopenta[b]pyridin-7-yl)oxy)-2-(4-(1-methyl-1H-pyrazol-4-yl)benzyl)-1,2-dihydro-3H-pyrrolo[3,4-c]pyridin-3-one], the pEC50 is 7.92 and the “activity (%) at 10 μM” value is on record as 104%.

Consider `Cc1nn(C)cc1-c1ccc(CN2Cc3cccc(O[C@@H]4COCC[C@H]4O)c3C2=O)cc1` [Example 251, 1,5-anhydro-2-deoxy-4-O-(2-(4-(1,3-dimethyl-1H-pyrazol-4-yl)benzyl)-3-oxo-2,3-dihydro-1H-isoindol-4-yl)-threo-pentitol], for which the pEC50 is 8.12 and the “activity (%) at 10 μM” value is 117%.

Consider `Cn1cc(-c2ccc(CN3Cc4ccnc(Oc5cc(C#N)ccc5F)c4C3=O)cc2)cn1` [Example 297, 4-fluoro-3-((2-(4-(1-methyl-1H-pyrazol-4-yl)benzyl)-3-oxo-2,3-dihydro-1H-pyrrolo[3,4-c]pyridin-4-yl)oxy)benzonitrile], for which the pEC50 is 7.80 and the “activity (%) at 10 μM” value turned out to be 96%.

With `Cn1cc(-c2ccc(CN3Cc4cccc(O[C@H]5CCCCC[C@@H]5O)c4C3=O)cc2)cn1` (relative stereo) [Example 3, 7-((trans-2-hydroxycycloheptyl)oxy)-2-(4-(1-methyl-1H-pyrazol-4-yl)benzyl)isoindolin-1-one], the pEC50 is 8.04 and the “activity (%) at 10 μM” value is 104%.

Regarding `Cn1cc(-c2ccc(CN3Cc4cccc(Oc5c(F)cccc5C#N)c4C3=O)cc2)cn1` [Example 6, 3-fluoro-2-((2-(4-(1-methyl-1H-pyrazol-4-yl)benzyl)-3-oxo-2,3-dihydro-1H-isoindol-4-yl)oxy)benzonitrile], the pEC50 is 7.51 and the “activity (%) at 10 μM” value was 90%.

In the case of `CNC(=O)c1ccc(CN2Cc3cccc(Oc4ccc(C(F)(F)F)cc4F)c3C2=O)cc1` [Example 439, 4-((7-(2-fluoro-4-(trifluoromethyl)phenoxy)-1-oxo-1,3-dihydro-2H-isoindol-2-yl)methyl)-N-methylbenzamide], the pEC50 is 7.89 and the “activity (%) at 10 μM” value is listed as 96%.

In the case of `Cc1cc(F)cc(F)c1Oc1nccc2c1C(=O)N(Cc1ccc(-c3ccn(C)n3)cc1)C2` [Example 359, 4-(2,4-difluoro-6-methylphenoxy)-2-(4-(1-methyl-1H-pyrazol-3-yl)benzyl)-1,2-dihydro-3H-pyrrolo[3,4-c]pyridin-3-one], the pEC50 is 7.03 and the “activity (%) at 10 μM” value amounted to 96%.

For the compound `COCc1ccc(F)c(Oc2nccc3c2C(=O)N(Cc2ccc(-c4cnn(C)c4)cc2)C3)c1` [Example 302, 4-(2-fluoro-5-(methoxymethyl)phenoxy)-2-(4-(1-methyl-1H-pyrazol-4-yl)benzyl)-1,2-dihydro-3H-pyrrolo[3,4-c]pyridin-3-one], the pEC50 was 7.49 and the “activity (%) at 10 μM” value was 92%.

With `Cn1cc(-c2ccc(CN3Cc4cccc(Oc5ccc(C(O)C(F)(F)F)cc5F)c4C3=O)cn2)cn1` (stereo not drawn) [Example 390, 7-(2-fluoro-4-(2,2,2-trifluoro-1-hydroxyethyl)phenoxy)-2-((6-(1-methyl-1H-pyrazol-4-yl)pyridin-3-yl)methyl)isoindolin-1-one], the pEC50 is 7.15 and the “activity (%) at 10 μM” value is given as 90%.
